{"source": "patent US12082581B2", "about": "“Acrylate derivative, use and production intermediate compound of the same” (SUMITOMO CHEMICAL COMPANY, LIMITED, priority 2019, dated 2024)", "tested_on": "cabbage moth (Plutella xylostella)", "assay": "Cabbage moth mortality test on sprayed cabbage seedling (Test method 23)", "assay_type": "in vivo", "conditions": "500 ppm, 20 mL/seedling sprayed on cabbage; 5 second instar larvae; after 5 days", "experimental": "The present compound is made to a formulation according to a similar method to that described in the Formulation Example 6, and thereto is added water containing 0.03 v/v % of a spreader to prepare a diluted solution containing a prescribed concentration of the test compound.\nCabbage (Brassicae oleracea) seedling (on the developmental stage of the second to third true leaf) is planted in a cup, and the diluted solutions are sprayed into the seedling at a ratio of 20 mL/seedling. Thereafter, the stem and leaf of the seedling is cut out and is then installed into the container that is covered with the filter paper. Five (5) cabbage moth (Plutella xylostella) at the second instar larval stages are released into the cup. After 5 days, the surviving insects are counted, and the mortality of insects is calculated by the following equation. Mortality (%)={1−the number of the surviving insects/5}×100", "data": [{"compound": "COC=C(Cc1cc(OCc2ccccc2)ccc1C)C(=O)OC", "note": "[compound 28]", "values": [{"measurement": "mortality", "value": 100, "unit": "%"}]}]}
